The record followed here is patent publication US11045464B2, “Parenteral formulations of dopamine agonists” (VeroScience LLC, priority 2007, dated 2021).

The nature of this series: Stability of SKF-38393 in solution. Format: physicochemical. From the text:
Formulation 22S was a combination of […], employing the 11S base formulation with the two active agents. […] A short study has been run to ensure the stability of SKF-38393. […] In contrast, in alcohol solution, the API decomposes rapidly, with >5% of the API already lost within the first hour.

SMILES strings stand for the structures. Where only a bound is given, the exact number is not on record here.

For the compound `Oc1cc2c(cc1O)C(c1ccccc1)CNCC2` (centres unmarked) [SKF-38393], under “in alcohol solution, within the first hour”, the “API lost (decomposition)” value was more than 5%. Further, under “in water buffered by the acidic acid, within 12 h”, the “decomposition of SKF-38393” value is “no decomposition”.
